This passage reports IC50, inhibition and melting point results from patent publication US7501425B1, “Bicyclic pyrimidines and bicyclic 3,4-dihydropyprimidines as inhibitors of cellular proliferation” (Warner Lambert Company, priority 1999, dated 2009).

One series concerns the target cdk4/D (Homo sapiens, UniProt P11802). Description: Cyclin-Dependent Kinase 4 (cdk4) enzyme assay, 32P incorporation. It is filed as biochemical. As to the method: A typical assay, for instance, measures inhibitory activity against the cyclin D dependent kinase 4 enzyme (cdk4/D). […] The cdk4 assay was carried out as follows.
Cyclin-Dependent Kinase 4 (cdk4) Assay
Enzyme assays for IC50 determinations (Tables 1 and 2) and kinetic evaluation were performed in 96 well filter plates (Millipore MADVN6550). The total volume was 0.1 mL containing a final concentration of 20 mM TRIS (tris[hydroxymethyl]aminomethane), at pH 7.4, 50 mM NaCl, 1 mM dithiothreitol, 10 mM MgCl2, 25 μM ATP containing 0.25 μCi of [^32P]ATP, 20 ng of cdk4, 1 μg of retinoblastoma, and appropriate dilutions of a compound of the present invention. All components except the ATP were added to the wells, and the plate was placed on a plate mixer for 2 minutes. The reaction was started by adding [^32P]ATP and the plate was incubated at 25° C. for 15 minutes. The reaction was terminated by addition of 0.1 mL of 20% trichloroacetic acid (TCA). The plate was kept at 4° C. for at least 1 hour to allow the substrate to precipitate. The wells were then washed five times with 0.2 mL of 10% TCA and ^32p incorporation was determined with a beta plate counter (Wallac Inc., Gaithersburg. MD).

Another series concerns the target cdk2/cyclinE (Homo sapiens, UniProt P24941). Description: Cyclin-dependent kinase assay cdk2/cyclinE. It is filed as biochemical. The following applies: for IC50: read-out: cdk2/E IC50; for inhibition at 40 µM: read-out: cdk2/E % Inhibition at 40 μM. As to the method:
(§1) Cyclin-Dependent Kinase Assays (cdk2/cyclinE, cdk2/cyclinA, cdc2/cyclinB)
(§2) All components except the ATP were added to the wells, and the plate was placed on a plate mixer for 2 minutes. The reaction was begun by addition of [^32P]ATP, and the plate was incubated at 25° C. for 15 minutes. The reaction was terminated by addition of 0.1 mL of 20% TCA. The plate was kept at 4° C. for at least 1 hour to allow the substrate to precipitate. The wells were then washed five times with 0.2 mL of 10% TCA and ^32P incorporation determined with a beta plate counter (Wallac Inc., Gaithersburg, Md.).

For another series, the target named is cdk2/cyclinA (Homo sapiens, UniProt P24941). Description: Cyclin-dependent kinase assay cdk2/cyclinA. It counts as biochemical. As to the method: as §1, §2
A further series deals with cdc2/cyclinB (Homo sapiens, UniProt P06493). Description: Cyclin-dependent kinase assay cdc2/cyclinB (cdk1/B). It counts as biochemical. As to the method:
as §1, §2

Chain of cdk4/D (P11802 whole entry, species assumed): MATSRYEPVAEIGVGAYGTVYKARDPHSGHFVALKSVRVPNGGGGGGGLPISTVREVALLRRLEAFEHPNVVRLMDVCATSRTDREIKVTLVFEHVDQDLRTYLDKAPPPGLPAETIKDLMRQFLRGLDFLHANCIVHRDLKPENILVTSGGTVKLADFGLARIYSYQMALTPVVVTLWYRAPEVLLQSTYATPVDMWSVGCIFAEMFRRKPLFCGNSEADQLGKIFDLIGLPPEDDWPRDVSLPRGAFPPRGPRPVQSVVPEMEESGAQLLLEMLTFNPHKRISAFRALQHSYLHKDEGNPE
Chain of cdk4/D (P24385 whole entry partner, species assumed): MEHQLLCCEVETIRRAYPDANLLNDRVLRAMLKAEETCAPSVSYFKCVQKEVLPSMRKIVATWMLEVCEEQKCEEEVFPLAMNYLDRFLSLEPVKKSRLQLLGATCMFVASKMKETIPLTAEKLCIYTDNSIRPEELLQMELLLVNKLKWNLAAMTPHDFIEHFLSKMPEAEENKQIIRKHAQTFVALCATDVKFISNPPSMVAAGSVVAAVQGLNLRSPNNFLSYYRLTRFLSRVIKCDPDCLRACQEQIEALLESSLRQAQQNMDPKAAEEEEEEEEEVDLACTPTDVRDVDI
Chain of cdc2/cyclinB (P06493 whole entry, species assumed): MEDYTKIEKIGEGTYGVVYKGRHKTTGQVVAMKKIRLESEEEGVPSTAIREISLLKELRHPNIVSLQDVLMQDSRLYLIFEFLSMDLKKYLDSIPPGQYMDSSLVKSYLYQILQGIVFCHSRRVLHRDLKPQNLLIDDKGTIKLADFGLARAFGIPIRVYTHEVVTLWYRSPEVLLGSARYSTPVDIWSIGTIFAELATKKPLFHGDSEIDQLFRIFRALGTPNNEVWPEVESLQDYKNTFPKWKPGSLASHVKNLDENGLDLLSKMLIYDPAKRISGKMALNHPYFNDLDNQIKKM
Chain of cdc2/cyclinB (P14635 whole entry partner, species assumed): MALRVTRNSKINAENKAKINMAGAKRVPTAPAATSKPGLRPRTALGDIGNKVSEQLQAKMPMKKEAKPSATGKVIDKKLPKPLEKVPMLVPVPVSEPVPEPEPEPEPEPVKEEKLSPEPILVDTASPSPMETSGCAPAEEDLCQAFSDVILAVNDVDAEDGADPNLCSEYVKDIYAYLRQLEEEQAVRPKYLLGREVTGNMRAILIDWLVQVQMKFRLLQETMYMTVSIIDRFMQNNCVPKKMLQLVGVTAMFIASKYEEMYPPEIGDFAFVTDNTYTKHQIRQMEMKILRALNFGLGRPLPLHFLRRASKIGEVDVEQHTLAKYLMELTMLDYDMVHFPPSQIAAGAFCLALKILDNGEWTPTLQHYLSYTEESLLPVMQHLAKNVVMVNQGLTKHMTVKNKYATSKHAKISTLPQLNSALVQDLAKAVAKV

For `O=C1NCc2cnc(Nc3ccc(-n4cccn4)cc3)nc2N1C1CCCC1` [Example 12, 1-Cyclopentyl-7-[4-(pyrazol-1-yl)phenylamino]-3,4-dihydro-pyrimido[4,5-d]pyrimidin-2(1H)-one], the IC50 against cdk4/D (25 μM ATP, retinoblastoma substrate) worked out at 1.8 µM; on cdk2/cyclinE it was 4.6 µM; at cdk2/cyclinA, 1.33 µM; against cdc2/cyclinB it was 12.2 µM.
By melting point is commonly meant the temperature, or range, at which the solid turns liquid. On to `O=C1NCc2cnc(Nc3ccc(-n4cccc4)cc3)nc2N1C1CCCC1` [Example 14, 1-Cyclopentyl-7-[4-(pyrrol-1-yl)phenylamino]-3,4-dihydro-pyrimido[4,5-d]pyrimidin-2(1H)-one], for which the melting point was > 200 °C (dec.). For the same compound, on cdk2/cyclinE, the inhibition at 40 µM stood at 38%.
As for `CC(C)N1C(=O)NCc2cnc(Nc3ccc(N4CCN(C)CC4)cc3)nc21` [Example 22, 1-Isopropyl-7-[4-(4-methylpiperazin-1-yl)phenylamino]-3,4-dihydro-pyrimido[4,5-d]pyrimidin-2(1H)-one], the melting point is 234 to 237 °C (dec.). In addition, at cdk2/cyclinE, the inhibition at 40 µM turned out to be 68%. The compound also returned an inhibition at 40 µM on cdc2/cyclinB of 25%.
In the case of `CC(C)N1C(=O)NCc2cnc(Nc3ccc(N4CCC(CCCN5CCOCC5)CC4)cc3)nc21` [Example 26, 1-Isopropyl-7-{4-[4-(3-(morpholin-1-yl)propyl)piperidin-1-yl]phenylamino}-3,4-dihydro-pyrimido[4,5-d]pyrimidin-2(1H)-one], the melting point was 203 to 205 °C (dec.). Besides, the IC50 at cdk2/cyclinE stood at 27 µM. The same compound gave an IC50 against cdk2/cyclinA of 6.46 µM. The compound further yielded an IC50 against cdc2/cyclinB of more than 40 µM.
Consider `CN1CCN(c2ccc(Nc3ncc4c(n3)N(C)C(=O)NC4)cc2)CC1.O=C(O)C(F)(F)F` [Example 28, 1-Methyl-7-[4-(4-methylpiperazin-1-yl)phenylamino]-3,4-dihydro-pyrimido[4,5-d]pyrimidin-2(1H)-one; compound with trifluoroacetic acid], for which the melting point was 234 to 235 °C (dec.). For the same compound, at cdk4/D, the inhibition at 40 µM was determined as 15%. The inhibition at 40 µM on cdk2/cyclinE is 22%.
Consider `CN1C(=O)NCc2cnc(Nc3ccc(N4CCC(O)CC4)cc3)nc21.O=C(O)C(F)(F)F` [Example 29, 7-[4-(4-Hydroxypiperidin-1-yl)phenylamino]-1-methyl-3,4-dihydro-pyrimido[4,5-d]pyrimidin-2(1H)-one; Compound with trifluoroacetic acid], for which the melting point was 228 to 229 °C (dec.). Moreover, at cdk2/cyclinE, the inhibition at 40 µM worked out at 28%.
As for `CN1C(=O)NCc2cnc(Nc3ccc(-n4cccn4)cc3)nc21.O=C(O)C(F)(F)F` [Example 31, 1-Methyl-7-[4-(pyrazol-1-yl)phenylamino]-3,4-dihydro-pyrimido[4,5-d]pyrimidin-2(1H)-one; Compound with trifluoroacetic acid], the melting point is 250 to 251 °C (dec.). This compound also had an inhibition at 40 µM at cdk4/D of 18%. Besides, the inhibition at 40 µM on cdk2/cyclinE came to 21%.
In the case of `CC(C)n1c(=O)ncc2cnc(Nc3ccc(N4CCN(C)CC4)cc3)nc21` [Example 40, 1-Isopropyl-7-[4-(4-methylpiperazin-1-yl)phenylamino]pyrimido[4,5-d]pyrimidin-2(1H)-one], the melting point is 228 to 229 °C (dec.). The inhibition at 40 µM on cdc2/cyclinB stood at 42%.
Turning to `CC(C)n1c(=O)ncc2cnc(Nc3ccc(N4CCC(N(C)C)CC4)cc3)nc21` [Example 41, 7-{4-[4-(Dimethylamino)piperidin-1-yl]phenylamino}-1-isopropyl-pyrimido[4,5-d]pyrimidin-2(1H)-one], the melting point is > 100 °C (dec.).
As to `CN1CCN(c2ccc(Nc3ncc4cnc(=O)n(C)c4n3)cc2)CC1` [Example 45, 1-Methyl-7-[4-(4-methylpiperazin-1-yl)phenylamino]pyrimido[4,5-d]pyrimidin-2(1H)-one], the melting point was 259 to 260 °C (dec.). Besides, on cdk2/cyclinE, the inhibition at 40 µM is 16%.
In the case of `CN(C)C1CCN(c2ccc(Nc3ncc4cnc(=O)n(C)c4n3)cc2)CC1` [Example 46, 7-{4-[4-(Dimethylamino)piperidin-1-yl]phenylamino}-1-methyl-pyrimido[4,5-d]pyrimidin-2(1H)-one], the melting point is 198 to 202 °C (dec.).
`Cn1c(=O)ncc2cnc(Nc3ccc(-n4cccn4)cc3)nc21` [Example 47, 1-Methyl-7-[4-(pyrazol-1-yl)phenylamino]pyrimido[4,5-d]pyrimidin-2(1H)-one]: the melting point is > 290 °C (dec.). Also, the inhibition at 40 µM at cdk2/cyclinE was 41%.
In turn, `CCNc1nc(SC)ncc1C=Nc1cc(OC)cc(OC)c1` [Example 48a, {5-[(3,5-Dimethoxy-phenylimino)-methyl]-2-methylsulfanyl-pyrimidin-4-yl}-ethyl-amine] registered a melting point of 100 to 105 °C.
Compound `COc1cc(OC)cc(N2Cc3cnc([S+](C)[O-])nc3NC2=O)c1` (centres unmarked) [Example 51, 3-(3,5-Dimethoxy-phenyl)-7-methanesulfinyl-3,4-dihydro-pyrimido [4,5-d]pyrimidin-2(1H)-one] came in with a melting point of 220 to 222 °C.
Turning to `CCN(CC)CCCCNc1ncc2c(n1)NC(=O)N(c1cc(OC)cc(OC)c1)C2` [Example 52, 7-(4-Diethylamino-butylamino)-3-(3,5-dimethoxy-phenyl)-3,4-dihydro-pyrimido[4,5-d]pyrimidin-2(1H)-one], the melting point is 203 to 207 °C.
Same read-out and setting: the result for `CCNc1nc(SC)ncc1C=Nc1cc(OC)cc(OC)c1Cl` [Example 61, {5-[(2-Chloro-3,5-dimethoxy-phenylimino)-methyl]-2-methylsulfanyl-pyrimidin-4-yl}-ethyl-amine] reads 196.5 to 198.5 °C; that for `CCNc1nc(SC)ncc1CNc1cc(OC)cc(OC)c1Cl` [Example 62, {5-[(2-Chloro-3,5-dimethoxy-phenylamino)-methyl]-2-methylsulfanyl-pyrimidin-4-yl}-ethyl-amine], 116.5 to 118.5 °C.
`CCN1C(=O)N(c2cc(OC)cc(OC)c2Cl)Cc2cnc(SC)nc21` [Example 63, 3-(2-Chloro-3,5-dimethoxy-phenyl)-1-ethyl-7-methylsulfanyl-3,4-dihydro-pyrimido[4,5-d]pyrimidin-2(1H)-one] came in with a melting point of 189 to 191 °C.
`COc1cc(OC)cc(N2Cc3cnc(SC)nc3N=C2N)c1` [Example 66, 3-(3,5-Dimethoxy-phenyl)-7-methylsulfanyl-3,4-dihydro-pyrimido [4,5-d]pyrimidin-2-ylamine] came in with a melting point of 198 to 204 °C.
Compound `C=CCn1c(=O)c2cnc(-n3ccnc3)nc2n(C(C)C)c1=O` [Example 68, 3-Allyl-7-(imidazol-1-yl)-1-isopropyl-1H-pyrimido [4,5-d]pyrimidine-2,4-dione] yielded a melting point of 158 to 160 °C.
In the case of `COc1ccc(Cn2c(=O)c3cnc(-n4ccnc4)nc3n(C(C)C)c2=O)cc1` [Example 69, 7-(Imidazol-1-yl)-1-isopropyl-3-(4-methoxybenzyl)-1H-pyrimido[4,5-d]pyrimidine-2,4-dione], the melting point was 148 to 150 °C (dec.).
`C=CCn1c(=O)c2cnc(Nc3ccc(N4CCN(C)CC4)cc3)nc2n(C(C)C)c1=O` [Example 70, 3-Allyl-1-isopropyl-7-[4-(4-methylpiperazin-1-yl)phenylamino]-1H-pyrimido[4,5-d]pyrimidine-2,4-dione] displayed a melting point of 176 to 177 °C. Moreover, on cdk2/cyclinE, the inhibition at 40 µM is 0%.
Turning to `COc1ccc(Cn2c(=O)c3cnc(Nc4ccc(N5CCN(C)CC5)cc4)nc3n(C(C)C)c2=O)cc1` [Example 71, 1-Isopropyl-3-(4-methoxybenzyl)-7-[4-(4-methylpiperazin-1-yl)phenylamino]-1H-pyrimido[4,5-d]pyrimidine-2,4-dione], the melting point was 215 to 216 °C.
Take `C=CCn1c(=O)c2cnc(Nc3ccc(OCCN(CC)CC)cc3)nc2n(C(C)C)c1=O` [Example 72, 3-Allyl-7-[4-(2-Diethylaminoethoxy)phenylamino]-1-isopropyl-1H-pyrimido[4,5-d]pyrimidine-2,4-dione]: the melting point fell in the range of 90 to 96 °C. For the same compound, the inhibition at 40 µM at cdk2/cyclinE was found to be 0%.
With `CCN(CC)CCOc1ccc(Nc2ncc3c(=O)n(Cc4ccc(OC)cc4)c(=O)n(C(C)C)c3n2)cc1` [Example 73, 7-[4-(2-Diethylaminoethoxy)phenylamino]-1-isopropyl-3-(4-methoxybenzyl)-1H-pyrimido[4,5-d]pyrimidine-2,4-dione], the melting point fell in the range of 139 to 141 °C.
